Measured values from article PMC5762338, “A novel orally available Syk/Src/Jak2 inhibitor, SKLB-850, showed potent anti-tumor activities in B cell lymphoma (BCL) models” (Oncotarget, 2017).

What was measured:
Ramos cells = test: Apoptosis assay, AnnexinV-FITC/propidium iodide FCM; type: cell-based, Human; conditions: treatment for 18 hours
Protocol: Figure 1 The chemical structure of SKLB-850 and its anti-tumor effects in vitro (A) The chemical structure of SKLB-850. (B and C) Apoptosis of Ramos cells induced by SKLB-850. Cells were treated by vehicle, R788 or indicated concentrations of compounds. After 18 hours, Cell were harvested and stained with AnnexinV-FITC and propidium iodide, then the apoptosis cells were analyzed by FCM. (D and E) Apoptosis of HBL-1 cells induced by SKLB-850. Cells were treated by vehicle, R788 or indicated concentrations of compounds. After 24 hours, Cell were harvested and stained with AnnexinV-FITC and propidium iodide, then the apoptosis cells were analyzed by FCM. […] Columns, mean; bars, SD. ^##P<0.01, or ^#P<0.05, SKLB-850 group versus vehicle group. […]
The ability of SKLB-850 to induce apoptosis of BCL cells was analyzed by FCM. […]
Flow cytometry (FCM) assays were performed to investigate the apoptosis of Ramos and HBL-1 cells induced by SKLB-850. […] Cell apoptosis was analyzed with a flow cytometer (BD FACSCalibur, BD, USA).

A549 = test: MTT anti-viability assay; type: cell-based; conditions: A549, Human non-small cell lung cancer cells, 72 hours
Protocol: (§1) In vitro anti-viability activities of SKLB-850 against various tumor cell lines were measured using the MTT method.
(§2) Human cancer cell lines Ramos-ZHL, HBL-1, SuDHL-6, LY-10, LY-1, RAJI, MDA-MB-231, SW1990, SMMC7721, MCF-7, CFPAC-1, HPAC, A549 and H358 were obtained from American Type Culture Collection (ATCC). All tumor cell lines were maintained according to the ATCC procedures and passaged for less than 6 months after receipt for resuscitation. These cells were cultured in RPMI-1640 supplemented with 10% fetal bovine serum (FBS).
(§3) Cell proliferation was measured using the MTT assay as previously described. Various cells including were treated with indicated concentrations of SKLB-850 for 72 hours. R788 (Selleck.cn) was served as a positive control. Each assay was replicated 3 times.

H358 = test: MTT anti-viability assay; type: cell-based; conditions: 72 hours
Protocol: as §1, §2, §3

HPAC = test: MTT anti-viability assay; type: cell-based; conditions: Human pancreatic cancer cell, 72 hours
Protocol: as §1, §2, §3

LY-10 = test: MTT anti-viability assay; type: cell-based; conditions: LY10, LY-10, Human diffuse large B cell lymphoma, 72 hours
Protocol: as §1, §2, §3

LY-1 = test: MTT anti-viability assay; type: cell-based; conditions: Ly1, LY-1, Human diffuse large B cell lymphoma, 72 hours
Protocol: as §1, §2, §3

MCF-7 = test: MTT anti-viability assay; type: cell-based; conditions: MCF7, MCF-7, Human breast cancer cell, 72 hours
Protocol: as §1, §2, §3

RAJI = test: MTT anti-viability assay; type: cell-based; conditions: Human B cell lymphoma, 72 hours
Protocol: as §1, §2, §3

Ramos-ZHL = test: MTT anti-viability assay; type: cell-based; conditions: Human B cell lymphoma, 72 hours
Protocol: as §1, §2, §3

SW1990 = test: MTT anti-viability assay; type: cell-based; conditions: SW1990, Human pancreatic cancer cell, 72 hours
Protocol: as §1, §2, §3

SuDHL-6 = test: MTT anti-viability assay; type: cell-based; conditions: SU-DHL-6, SuDHL-6, Human follicular B cell lymphoma, 72 hours
Protocol: as §1, §2, §3

| SMILES | percentages of apoptotic cells (in words) (Ramos cells) | IC50 (A549) | IC50 anti-viability (A549) | IC50 anti-viability (H358; H358, Human non-small cell lung cancer cells) | IC50 (H358; NCI-H358, H358, Human non-small cell lung cancer cells) | IC50 (HPAC) | IC50 anti-viability (HPAC) | IC50 (LY-10) | IC50 (LY-1) | IC50 (MCF-7) | IC50 (RAJI) | IC50 (Ramos-ZHL) | IC50 (SW1990) | IC50 (SuDHL-6) |
| --- | --- | --- | --- | --- | --- | --- | --- | --- | --- | --- | --- | --- | --- | --- |
| COc1cc(Nc2ncc(F)c(Nc3ccc4c(n3)N(COP(=O)(O)O)C(=O)C(C)(C)O4)n2)cc(OC)c1OC [R788, reference compound] | induced apoptosis but obviously much weaker |  |  |  |  |  |  |  |  |  |  |  |  |  |
| CN1CCN(c2ccc(Nc3ncc(F)c(Nc4ccc(Cl)cc4C(N)=O)n3)cc2)CC1 [SKLB-850, 5-chloro-2-((5-fluoro-2-((4-(4-methylpiperazin-1-yl)phenyl)amino)pyrimidin-4-yl)amino) benzamide] | dose-dependently increased | > 20000 nM | did not exhibit activity | did not exhibit activity | > 20000 nM | > 20000 nM | did not exhibit activity | 900 nM | 1600 nM | 7230 nM | 1950 nM | 30 nM | 2190 nM | 900 nM |
